{
  "source": "paper PMC6009973",
  "about": "(Journal of Enzyme Inhibition and Medicinal Chemistry, 2017)",
  "target": "T1, CpeCA (Clostridium perfringens, UniProt A0A0H2YPC2)",
  "T1 construct": "gene CPF_0414",
  "T1 sequence (A0A0H2YPC2 1-190)": "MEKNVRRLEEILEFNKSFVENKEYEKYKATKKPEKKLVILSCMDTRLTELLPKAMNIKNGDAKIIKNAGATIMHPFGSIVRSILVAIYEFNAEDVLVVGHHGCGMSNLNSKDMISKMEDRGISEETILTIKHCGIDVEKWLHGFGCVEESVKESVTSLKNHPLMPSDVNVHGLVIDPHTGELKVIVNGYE",
  "conditions": "read-out: CpeCA^bβ; CO2 1.7-17 mM, 20 mM TRIS pH 8.3, 20 mM Na2SO4, 15 min pre-incubation at room temperature; errors 5-10%",
  "data": [
    {"smiles": "CCN[C@H]1CN(CCCOC)S(=O)(=O)c2sc(S(N)(=O)=O)cc21", "note": "[BRZ, brinzolamide]", "values": [
      {"measurement": "Ki", "result": 121, "unit": "nM"}
    ]},
    {"smiles": "NS(=O)(=O)c1nnc(NS(=O)(=O)c2ccccc2)s1", "note": "[BZA, benzolamide]", "values": [
      {"measurement": "Ki", "result": 497, "unit": "nM"}
    ]},
    {"smiles": "Cc1ccc(-c2cc(C(F)(F)F)nn2-c2ccc(S(N)(=O)=O)cc2)cc1", "note": "[CLX, celecoxib]", "values": [
      {"measurement": "Ki", "result": 312, "unit": "nM"}
    ]},
    {"smiles": "NS(=O)(=O)c1cc(Cl)c(Cl)c(S(N)(=O)=O)c1", "note": "[DCP, dichlorophenamide]", "values": [
      {"measurement": "Ki", "result": 68, "unit": "nM"}
    ]},
    {"smiles": "NS(=O)(=O)c1cc2c(cc1Cl)NCNS2(=O)=O", "note": "[HCT, hydrochlorothiazide]", "values": [
      {"measurement": "Ki", "result": 219, "unit": "nM"}
    ]},
    {"smiles": "NS(=O)(=O)c1ccc(S(=O)(=O)Nc2cccc3c(Cl)c[nH]c23)cc1", "note": "[IND, indisulam]", "values": [
      {"measurement": "Ki", "result": 173, "unit": "nM"}
    ]},
    {"smiles": "CC(=O)N=c1sc(S(N)(=O)=O)nn1C", "note": "[MZA, methazolamide]", "values": [
      {"measurement": "Ki", "result": 113, "unit": "nM"}
    ]},
    {"smiles": "O=C1NS(=O)(=O)c2ccccc21", "note": "[SAC, saccharin]", "values": [
      {"measurement": "Ki", "result": "> 100000", "unit": "nM"}
    ]},
    {"smiles": "CCN1CCCC1CNC(=O)c1cc(S(N)(=O)=O)ccc1OC", "note": "(centres unmarked) [SLP, sulpiride]", "values": [
      {"measurement": "Ki", "result": 389, "unit": "nM"}
    ]},
    {"smiles": "NS(=O)(=O)c1ccc(N2CCCCS2(=O)=O)cc1", "note": "[SLT, sulthiame]", "values": [
      {"measurement": "Ki", "result": 63.1, "unit": "nM"}
    ]},
    {"smiles": "CC1(C)O[C@@H]2[C@@H](CO[C@@]3(COS(N)(=O)=O)OC(C)(C)O[C@@H]23)O1", "note": "[TPM, topiramate]", "values": [
      {"measurement": "Ki", "result": 204, "unit": "nM"}
    ]},
    {"smiles": "Cc1onc(-c2ccccc2)c1-c1ccc(S(N)(=O)=O)cc1", "note": "[VLX, valdecoxib]", "values": [
      {"measurement": "Ki", "result": 160, "unit": "nM"}
    ]},
    {"smiles": "NS(=O)(=O)Cc1noc2ccccc12", "note": "[ZNS, zonisamide]", "values": [
      {"measurement": "Ki", "result": "> 100000", "unit": "nM"}
    ]},
    {"smiles": "NS(=O)(=O)c1ccc(CCNS(=O)(=O)c2ccc([N+](=O)[O-])cc2CO)cc1", "note": "[compound 24, 4-(2-hydroxymethyl-4-nitrophenyl-sulphonamido)ethylbenzenesulphonamide]", "values": [
      {"measurement": "Ki", "result": 51.2, "unit": "nM"}
    ]}
  ]
}
